Assay results from paper PMC12598616, “Design and optimization of caspase-1-responsive fluorescent probes for pyroptosis imaging and anti-pyroptosis drug screening” (Chemical Science, 2025).

Key:
[1] = tested on: activated Cas-1 in primary peritoneal macrophages; assay: High-content screening / fluorescence imaging for caspase-1 modulators in primary peritoneal macrophages; assay type: cell-based, mouse; settings: natural product 10 μM with Nig 10 μM 2 h after LPS 4 h; FPy1 5 μM
Text: The efficient and rapid discovery of Cas-1 modulators is of significant importance considering the therapeutic potential of Cas-1 in various diseases.[39,40] Therefore, we employed FPy1 to construct a high-content screening system aimed at identifying Cas-1 modulators. The level of activated Cas-1 in cells is influenced by multiple factors. To reduce the impact of factors that affect Cas-1 activation in cells, we utilized the NLRP3 inflammasome-mediated Cas-1 activation model, administering the drug during the second stage where the zymogen was converted into activated Cas-1. MCC950, a selective NLRP3 inflammasome inhibitor that could suppress Cas-1 activation, was selected as the positive drug.[41] […] To validate the efficacy of the Cas-1 modulator screening system (Fig. 6a), we first observed the fluorescence images of PMs stained with FPy1 (5 μM) in the control group, model group, and positive drug group. […] Subsequently, the impact of 25 natural products (10 μM) on activated Cas-1 were studied using high-content analysis (Fig. S20). […] To determine whether deoxyshikonin directly binds to Cas-1 and inhibits its activity, we conducted fluorescence detection following co-incubation of deoxyshikonin, FPy1 and Cas-1. […]
Harvested rat discs were fixed in 4 % buffered paraformaldehyde for 24 hours, decalcified in 10 % ethylenediaminetetraacetic acid (EDTA, Solarbio, E8030) solution for 1 month, embedded in paraffin, and sectioned at a thickness of 5 μm. […] Stained sections were evaluated by three independent raters, blinded to the research protocol, and measurements were averaged for statistical analysis. […]
In vivo fluorescence imaging of intervertebral disc degeneration
Twelve rats were modeled with needle puncture-induced intervertebral disc degeneration at the Co5/6, Co6/7 and Co 7/8 levels. […] In vivo fluorescence images were acquired using an in vivo Imaging System (PerkinElmer). […]
In vivo fluorescence imaging of osteoarthritis […]

[2] = tested on: Cas-1; assay: Fluorescence detection after co-incubation of deoxyshikonin, FPy1 and Cas-1; assay type: biochemical, human
Text: The efficient and rapid discovery of Cas-1 modulators is of significant importance considering the therapeutic potential of Cas-1 in various diseases.[39,40] Therefore, we employed FPy1 to construct a high-content screening system aimed at identifying Cas-1 modulators. The level of activated Cas-1 in cells is influenced by multiple factors. To reduce the impact of factors that affect Cas-1 activation in cells, we utilized the NLRP3 inflammasome-mediated Cas-1 activation model, administering the drug during the second stage where the zymogen was converted into activated Cas-1. MCC950, a selective NLRP3 inflammasome inhibitor that could suppress Cas-1 activation, was selected as the positive drug.[41] […] To validate the efficacy of the Cas-1 modulator screening system (Fig. 6a), we first observed the fluorescence images of PMs stained with FPy1 (5 μM) in the control group, model group, and positive drug group. […] Subsequently, the impact of 25 natural products (10 μM) on activated Cas-1 were studied using high-content analysis (Fig. S20). […] To determine whether deoxyshikonin directly binds to Cas-1 and inhibits its activity, we conducted fluorescence detection following co-incubation of deoxyshikonin, FPy1 and Cas-1. […] Overall, FPy1 could serve as an effective tool for the rapid identification of lead compounds that modulate Cas-1 activity within a high-content analysis platform. […]

[3] = tested on: cleaved Cas-1; assay: Western blot of cleaved Cas-1; assay type: cell-based; settings: control and treated groups

## CC(C)=CCCC1=CC(=O)c2c(O)ccc(O)c2C1=O [deoxyshikonin]
[1]
  fluorescence intensity of FPy1 relative to model group, high-content analysis: significant reduction in fluorescence intensity compared to the model group
[2]
  fluorescence at 585 nm in presence of compound (direct Cas-1 inhibition): the fluorescence at 585 nm was lower in the presence of deoxyshikonin
[3]
  activated Cas-1 level (Western blot): significantly inhibit the activation of Cas-1, reducing activated Cas-1 levels
